How the values were obtained:
[1] = BA test (oral absorbability); format: in vivo; conditions: plasma; Mouse, oral administration 1 mg/kg
Experimental: An experimental material and a method for examining oral absorbability
(1) Animals used rats or mice were used.
(2) Breeding condition: chow and sterilized tap water were allowed to be taken in freely.
(3) Setting of a dosage and grouping: a predetermined dosage was administered orally or intravenously. Groups were formed as shown below. (A dosage varied depending on each compound) Oral administration 1-30 mg/kg (n=2 to 3) Intravenous administration 0.5-10 mg/kg (n=2 to 3) (4) Preparation of administered liquid: In oral administration, a solution or suspension was administered. In intravenous administration, after solubilization, the administration was performed. (5) Method of Administration: In oral administration, compulsory administration to the stomach was conducted using an oral probe.
In intravenous administration, administration from the caudal vein was conducted using a syringe with an injection needle.
(6) Evaluation item: Blood was chronologically collected, and then the drug concentration in blood plasma was measured using a LC/MS/MS.
(7) Statistical analysis: With regard to a shift in plasma concentration, the plasma concentration-time area under the curve (AUC) was calculated using a nonlinear least-squares program WinNonlin®. Bioavailability (BA) was calculated from the AUCs of the oral administration group and the intravenous administration group, respectively. […]

human TRPV4 [2] = molecular target: T1, human TRPV4 (Homo sapiens (Human), UniProt Q9HBA0); test: Test Example 3: measurement of TRPV4 inhibitory activity (Fluo-3, FDSS 3000, 4α-PDD); format: cell-based; conditions: hTRPV4/CHO cells, calculated from IC50 and 4α-PDD EC50
T1 sequence (Q9HBA0 whole entry): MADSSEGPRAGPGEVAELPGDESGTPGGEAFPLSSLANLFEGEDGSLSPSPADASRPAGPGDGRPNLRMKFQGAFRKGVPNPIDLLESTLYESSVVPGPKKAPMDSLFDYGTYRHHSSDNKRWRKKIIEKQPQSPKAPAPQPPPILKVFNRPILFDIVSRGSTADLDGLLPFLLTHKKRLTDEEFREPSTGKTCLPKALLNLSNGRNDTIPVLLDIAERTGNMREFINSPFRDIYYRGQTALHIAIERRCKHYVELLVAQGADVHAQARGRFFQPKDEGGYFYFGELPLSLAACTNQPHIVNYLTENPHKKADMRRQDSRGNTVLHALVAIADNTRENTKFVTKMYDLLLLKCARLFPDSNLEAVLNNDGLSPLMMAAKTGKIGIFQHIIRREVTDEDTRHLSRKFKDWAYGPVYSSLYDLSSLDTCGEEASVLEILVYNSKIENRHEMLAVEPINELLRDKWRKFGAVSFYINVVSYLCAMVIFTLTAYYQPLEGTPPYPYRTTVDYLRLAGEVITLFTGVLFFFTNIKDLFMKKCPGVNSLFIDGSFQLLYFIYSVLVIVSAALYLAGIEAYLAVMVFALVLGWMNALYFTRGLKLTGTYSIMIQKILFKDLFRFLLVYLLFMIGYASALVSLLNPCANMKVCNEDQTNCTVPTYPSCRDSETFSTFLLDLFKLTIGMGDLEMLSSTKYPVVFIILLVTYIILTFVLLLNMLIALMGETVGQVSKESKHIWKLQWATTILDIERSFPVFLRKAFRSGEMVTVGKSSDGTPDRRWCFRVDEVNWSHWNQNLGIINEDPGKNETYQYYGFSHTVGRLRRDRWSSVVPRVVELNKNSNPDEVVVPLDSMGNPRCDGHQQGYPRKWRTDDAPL
Summary of the method: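 Fluo-3-loaded CHO-K1 cells stably expressing TRPV4 in HEPES/probenecid Hanks buffer pH 7.4; compound added, then 4α-PDD, Ca2+ fluorescence (Ex 480/Em 540 nm) read 8 min. Max-Min normalized to 10 μM Ruthenium Red (100%) and vehicle; IC50 from 10-point 3-fold series converted to Ki using 4α-PDD EC50 and concentration.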

[3] = Metabolism stability test; format: in vitro ADME; conditions: human liver microsomes, 30 minutes
Experimental: Using a commercially available pooled human hepatic microsomes, a test compound was reacted for a constant time, a remaining rate was calculated by comparing a reacted sample and an unreacted sample, thereby, a degree of metabolism in liver was assessed.
A reaction was performed (oxidative reaction) at 37° C. for 0 minute or 30 minutes in the presence of 1 mmol/L NADPH in 0.2 mL of a buffer (50 mmol/L Tris-HCl pH 7.4, 150 mmol/L potassium chloride, 10 mmol/L magnesium chloride) containing 0.5 mg protein/mL of human liver microsomes. After the reaction, 50 μL of the reaction mixture was added to 100 μL of a methanol/acetonitrile=1/1 (v/v), mixed and centrifuged at 3000 rpm for 15 minutes. The test compound in the supernatant was quantified by LC/MS/MS, and a remaining amount of the test compound after the reaction was calculated, letting a compound amount at 0 minute reaction time to be 100%. Hydrolysis reaction was performed in the absence of NADPH and glucuronidation reaction was in the presence of 5 mM UDP-glucuronic acid in place of NADPH, followed by similar operations.

Solubility test = format: physicochemical; conditions: artificial intestinal juice (phosphate buffer) with 1% DMSO, fassgf or other biorelevant, kinetic from dmso stock, artificial intestinal juice pH 6.8, 16 hours at 25° C.
Experimental: The solubility of each compound is determined under 1% DMSO addition conditions. A 10 mmol/L solution of the compound is prepared with DMSO, and 6 μL of the compound solution is added to 594 μL of an artificial intestinal juice (water and 118 mL of 0.2 mol/L NaOH reagent are added to 250 mL of 0.2 mol/L potassium dihydrogen phosphate reagent to reach 1000 mL) with a pH of 6.8. The mixture is left standing for 16 hours at 25° C., and the mixture is vacuum-filtered. The filtrate is two-fold diluted with methanol/water=1/1, and the compound concentration in the filtrate is measured with HPLC or LC/MS/MS by the absolute calibration method.

human TRPV4 [4] = molecular target: T1, human TRPV4; test: Test Example 2: measurement of TRPV4 inhibitory activity (Fluo 3-AM, FLIPR, 4α-PDD 600 nmol/L); format: cell-based; conditions: hTRPV4/CHO cells
Experimental: For each compound, TRPV4 inhibitory activity was measured using cells.
(1) The TRPV4 inhibitory activity was measured using CHO-K1 cells stably expressing human TRPV4 (hTRPV4/CHO cells).
(2) In the day before the experimental day, frozen cell were thawed and washed with the culture medium (MEM-α, 10% FBS, 4 mmol/L L-Glutamine, 50 unit Penicillin, 50 μg/mL Streptomycin). Then cells were suspended in the culture medium.
(3) The 384-well plates which hTRPV4/CHO cells were seeded at densities of 4000 cells/well in the culture medium and cultured in a CO2 incubator in the presence of 5% CO2 at 37° C. for overnight was used as assay plates. […]
(7) Diluted compound solution was dispensed to each well in the compound plate, and mixed with built-in Pipette and Mixer of the Fluorescence analysis system FLIPR 384 (Molecular devices). […]
(9) The fluorescent intensity was measured with FLIPR TETRA system for 7 min from the point of time addition the compound solution, at Ex 488 nm, Em 510-570 nm wavelength.
TRPV4 inhibitory activity (IC50 value) of a compound was evaluated according to the following procedure.
(10) In the presence of the compound, the difference between maximal and minimal of fluorescent intensity value for 3 min from just before addition of 4α-PDD solution was calculated, and it was referred as Max-Min value. […]

human TRPV4 [5] = molecular target: T1, human TRPV4; test: Test Example 1: measurement of TRPV4 inhibitory activity (Fluo 4-AM, FLIPR TETRA, 4α-PDD 1 μmol/L); format: cell-based; conditions: hTRPV4/CHO cells, 4α-PDD 1 μmol/L
Summary of the method: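 Calcium influx evoked by 4α-PDD (final 1 μmol/L) in hTRPV4/CHO-K1 cells loaded with Fluo-4 AM (final 3 μmol/L), pH 7.4 HEPES-Hanks with probenecid; compounds added 5 min earlier. Inhibition relative to 20 μM Ruthenium Red gave IC50 (logistic), converted to Ki via agonist EC50.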

remaining rate (metabolism stability) ([3]; compound concentration 0.5 μmol/L) [%]	IC50 (human TRPV4 [4]) [nM]	IC50 (human TRPV4 [5]) [nM]	Compound	bioavailability [1] [%]	Ki (human TRPV4 [2]) [nM]	remaining rate (metabolism stability) ([3]; compound concentration 2 μmol/L) [%]	solubility at 16 h (Solubility test) [µM]
–	–	–	Cc1c(C(=O)Nc2cccc(C(F)(F)F)c2)cc(-c2ccccc2)n1CCCN1CCNCC1 [Compound I-014]	15.2	355	66.3	> 50
92.2	–	–	CNCCCn1c(-c2ccccc2)cc(C(=O)Nc2cccc(C(F)(F)F)c2)c1C [Compound I-031]	24.4	160	–	> 50
–	1600	1200	Cc1c(C(=O)Nc2cccc(C(F)(F)F)c2)cc(-c2ccccc2)n1CCSCc1c(F)cccc1Cl [Compound I-084]	–	–	–	–

From US9340500B2, “Aromatic heterocyclic derivative having TRPV4-inhibiting activity” (SHIONOGI & CO., LTD., priority 2011, dated 2016)
